{"source": "paper PMC7901654", "about": "“Bioisosteric Discovery of NPA101.3, a Second-Generation RET/VEGFR2 Inhibitor Optimized for Single-Agent Polypharmacology” (Journal of Medicinal Chemistry, 2020)", "assay_in_all_cases": "KinomeScan panel screen", "assay_type_in_all_cases": "binding", "key": {"[1]": {"target": "T1, CSF1R (Homo sapiens, UniProt P07333)", "T1 construct": "purchased Invitrogen", "T1 sequence (P07333 20-972)": "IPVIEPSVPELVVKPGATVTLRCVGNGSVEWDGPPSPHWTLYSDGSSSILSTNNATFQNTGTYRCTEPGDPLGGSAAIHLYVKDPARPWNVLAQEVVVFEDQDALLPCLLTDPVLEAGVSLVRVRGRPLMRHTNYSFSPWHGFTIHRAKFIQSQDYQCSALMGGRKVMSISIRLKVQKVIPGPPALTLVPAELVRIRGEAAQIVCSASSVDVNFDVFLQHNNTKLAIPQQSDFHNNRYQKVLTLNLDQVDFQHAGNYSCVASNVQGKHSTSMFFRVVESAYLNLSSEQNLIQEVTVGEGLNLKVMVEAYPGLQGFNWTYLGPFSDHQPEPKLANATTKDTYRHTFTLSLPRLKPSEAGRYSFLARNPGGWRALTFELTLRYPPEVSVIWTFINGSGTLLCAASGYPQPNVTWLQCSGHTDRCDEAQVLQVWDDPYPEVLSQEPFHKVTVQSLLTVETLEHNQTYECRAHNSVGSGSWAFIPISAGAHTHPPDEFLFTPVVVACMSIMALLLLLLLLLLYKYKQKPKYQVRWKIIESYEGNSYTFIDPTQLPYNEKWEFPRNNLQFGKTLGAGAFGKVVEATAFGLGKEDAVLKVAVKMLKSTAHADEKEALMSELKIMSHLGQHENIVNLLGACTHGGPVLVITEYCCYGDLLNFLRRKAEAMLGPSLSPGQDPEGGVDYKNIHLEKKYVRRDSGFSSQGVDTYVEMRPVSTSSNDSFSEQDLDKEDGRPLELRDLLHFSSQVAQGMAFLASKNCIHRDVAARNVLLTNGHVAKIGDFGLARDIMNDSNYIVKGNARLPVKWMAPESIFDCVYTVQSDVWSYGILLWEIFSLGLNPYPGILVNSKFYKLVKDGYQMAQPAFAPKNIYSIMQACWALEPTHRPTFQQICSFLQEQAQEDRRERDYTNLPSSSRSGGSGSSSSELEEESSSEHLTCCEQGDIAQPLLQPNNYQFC", "details": "100 nM"}, "[2]": {"target": "T2, PLK1 (Homo sapiens, UniProt P53350)", "T2 construct": "purchased DiscoveRx KINOMEscan (TRKA and CSF1R IC50 enzymes from Invitrogen)", "details": "PLK1, 100 nM; read-out: Percent Control"}, "[3]": {"target": "T3, AXL (Homo sapiens, UniProt P30530)", "T3 construct": "purchased DiscoveRx KINOMEscan (TRKA and CSF1R IC50 enzymes from Invitrogen)", "details": "100 nM, read-out: Percent Control"}, "[4]": {"target": "T4, PCTK1 (Homo sapiens, UniProt Q00536)", "T4 construct": "purchased DiscoveRx KINOMEscan (TRKA and CSF1R IC50 enzymes from Invitrogen)", "details": "PCTK1, 100 nM; read-out: Percent Control"}, "[5]": {"target": "T5, ASK1 (Homo sapiens, UniProt Q99683)", "T5 construct": "purchased DiscoveRx KINOMEscan (TRKA and CSF1R IC50 enzymes from Invitrogen)", "details": "ASK1, 100 nM; read-out: Percent Control"}, "[6]": {"target": "T6, RIPK4 (Homo sapiens, UniProt P57078)", "T6 construct": "purchased DiscoveRx KINOMEscan (TRKA and CSF1R IC50 enzymes from Invitrogen)", "details": "RIPK4, 100 nM; read-out: Percent Control"}, "[7]": {"target": "T7, ULK1 (Homo sapiens, UniProt O75385)", "T7 construct": "purchased DiscoverX (outsourced KINOMEscan)", "details": "ULK1, 100 nM; read-out: Percent Control"}, "[8]": {"target": "T8, MLK2 (Homo sapiens, UniProt Q02779)", "T8 construct": "purchased DiscoveRx KINOMEscan (TRKA and CSF1R IC50 enzymes from Invitrogen)", "details": "MLK2, 100 nM; read-out: Percent Control"}, "[9]": {"target": "T9, BUB1 (Homo sapiens, UniProt O43683)", "T9 construct": "purchased DiscoveRx KINOMEscan (TRKA and CSF1R IC50 enzymes from Invitrogen)", "T9 sequence (O43683 whole entry)": "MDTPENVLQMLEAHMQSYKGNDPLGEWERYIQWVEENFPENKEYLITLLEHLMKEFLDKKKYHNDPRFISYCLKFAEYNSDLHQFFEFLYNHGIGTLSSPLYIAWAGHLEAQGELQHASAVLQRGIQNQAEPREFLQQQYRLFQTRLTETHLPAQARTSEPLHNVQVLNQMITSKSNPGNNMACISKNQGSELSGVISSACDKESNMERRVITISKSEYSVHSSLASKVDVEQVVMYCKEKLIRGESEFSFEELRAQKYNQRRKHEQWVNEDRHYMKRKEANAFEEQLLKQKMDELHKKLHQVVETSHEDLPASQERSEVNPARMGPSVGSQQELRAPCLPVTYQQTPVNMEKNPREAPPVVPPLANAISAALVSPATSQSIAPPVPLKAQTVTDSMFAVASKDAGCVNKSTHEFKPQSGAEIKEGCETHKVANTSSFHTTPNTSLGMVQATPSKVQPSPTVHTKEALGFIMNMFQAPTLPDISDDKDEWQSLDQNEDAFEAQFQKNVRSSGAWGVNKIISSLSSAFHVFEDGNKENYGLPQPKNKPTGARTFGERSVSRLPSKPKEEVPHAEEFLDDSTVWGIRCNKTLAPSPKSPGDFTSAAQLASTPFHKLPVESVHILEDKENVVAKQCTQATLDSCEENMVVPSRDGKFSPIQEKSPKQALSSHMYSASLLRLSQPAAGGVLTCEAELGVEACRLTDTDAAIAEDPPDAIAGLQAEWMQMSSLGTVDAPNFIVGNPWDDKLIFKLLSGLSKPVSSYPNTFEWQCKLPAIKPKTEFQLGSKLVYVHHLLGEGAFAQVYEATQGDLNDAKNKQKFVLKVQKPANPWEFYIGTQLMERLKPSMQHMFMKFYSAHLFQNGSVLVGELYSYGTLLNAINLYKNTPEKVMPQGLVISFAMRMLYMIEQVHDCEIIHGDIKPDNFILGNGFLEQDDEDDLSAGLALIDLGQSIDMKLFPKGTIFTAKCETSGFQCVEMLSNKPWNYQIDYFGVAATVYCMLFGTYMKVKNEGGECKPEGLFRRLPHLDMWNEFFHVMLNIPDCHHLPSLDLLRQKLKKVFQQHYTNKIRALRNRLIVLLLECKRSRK", "details": "BUB1, 100 nM; read-out: Percent Control"}, "[10]": {"target": "T10, MKNK2 (Homo sapiens, UniProt Q9HBH9)", "T10 construct": "purchased DiscoveRx KINOMEscan (TRKA and CSF1R IC50 enzymes from Invitrogen)", "T10 sequence (Q9HBH9 whole entry)": "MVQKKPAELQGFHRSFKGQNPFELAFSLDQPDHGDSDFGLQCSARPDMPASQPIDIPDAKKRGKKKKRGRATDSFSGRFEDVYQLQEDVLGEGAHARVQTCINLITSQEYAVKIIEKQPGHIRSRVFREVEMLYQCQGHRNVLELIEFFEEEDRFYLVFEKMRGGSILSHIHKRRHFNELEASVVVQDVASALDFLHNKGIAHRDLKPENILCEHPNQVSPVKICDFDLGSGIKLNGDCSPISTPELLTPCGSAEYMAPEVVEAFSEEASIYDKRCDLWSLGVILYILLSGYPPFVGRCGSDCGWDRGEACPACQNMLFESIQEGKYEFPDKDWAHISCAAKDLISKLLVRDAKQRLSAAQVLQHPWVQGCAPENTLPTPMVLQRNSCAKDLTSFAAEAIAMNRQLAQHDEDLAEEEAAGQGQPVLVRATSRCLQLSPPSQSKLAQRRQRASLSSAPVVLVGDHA"}, "[11]": {"target": "T11, CLK1 (Homo sapiens, UniProt P49759)", "T11 construct": "purchased DiscoveRx KINOMEscan (TRKA and CSF1R IC50 enzymes from Invitrogen)", "details": "CLK1, 100 nM; read-out: Percent Control"}, "[12]": {"target": "T12, HIPK2 (Homo sapiens, UniProt Q9H2X6)", "T12 construct": "purchased DiscoveRx KINOMEscan (TRKA and CSF1R IC50 enzymes from Invitrogen)", "details": "HIPK2, 100 nM; read-out: Percent Control"}, "[13]": {"target": "T13, CSNK1A1 (Homo sapiens, UniProt P48729)", "T13 construct": "purchased DiscoveRx KINOMEscan (TRKA and CSF1R IC50 enzymes from Invitrogen)", "T13 sequence (P48729 whole entry)": "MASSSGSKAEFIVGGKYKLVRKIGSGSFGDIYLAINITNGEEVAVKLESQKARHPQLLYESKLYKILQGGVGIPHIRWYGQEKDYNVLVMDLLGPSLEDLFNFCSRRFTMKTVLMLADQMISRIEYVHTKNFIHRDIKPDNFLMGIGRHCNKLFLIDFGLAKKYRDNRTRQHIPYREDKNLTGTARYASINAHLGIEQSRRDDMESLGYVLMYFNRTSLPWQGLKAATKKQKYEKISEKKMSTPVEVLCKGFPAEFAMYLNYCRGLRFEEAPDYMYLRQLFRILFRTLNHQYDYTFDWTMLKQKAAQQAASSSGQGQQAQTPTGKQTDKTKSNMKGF", "details": "CSNK1A1, 100 nM; read-out: Percent Control"}, "[14]": {"target": "T14, LYN (Homo sapiens, UniProt P07948)", "T14 construct": "purchased DiscoveRx KINOMEscan (TRKA and CSF1R IC50 enzymes from Invitrogen)", "T14 sequence (P07948 whole entry)": "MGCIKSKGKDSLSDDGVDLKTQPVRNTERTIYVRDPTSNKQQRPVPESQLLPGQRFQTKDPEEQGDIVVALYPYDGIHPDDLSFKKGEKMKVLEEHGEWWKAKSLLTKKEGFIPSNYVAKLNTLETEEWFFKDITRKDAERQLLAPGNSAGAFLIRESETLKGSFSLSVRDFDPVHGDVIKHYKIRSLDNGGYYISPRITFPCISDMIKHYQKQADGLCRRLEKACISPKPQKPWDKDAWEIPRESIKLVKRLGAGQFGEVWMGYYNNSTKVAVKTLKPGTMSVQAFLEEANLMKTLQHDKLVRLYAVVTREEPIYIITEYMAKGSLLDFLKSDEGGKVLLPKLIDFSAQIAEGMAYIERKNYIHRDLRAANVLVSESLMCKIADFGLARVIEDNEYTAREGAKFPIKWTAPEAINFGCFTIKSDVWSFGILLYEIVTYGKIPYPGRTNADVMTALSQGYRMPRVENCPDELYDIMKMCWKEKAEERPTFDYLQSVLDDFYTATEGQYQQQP", "details": "100 nM"}, "[15]": {"target": "T15, MYO3A (Homo sapiens, UniProt Q8NEV4)", "T15 construct": "purchased DiscoveRx KINOMEscan (TRKA and CSF1R IC50 enzymes from Invitrogen)", "details": "100 nM, read-out: Percent Control"}, "[16]": {"target": "T16, TTK (Homo sapiens, UniProt P33981)", "T16 construct": "purchased DiscoverX (outsourced KINOMEscan)", "details": "100 nM, read-out: Percent Control"}, "[17]": {"target": "T17, DRAK1 (Homo sapiens, UniProt Q9UEE5)", "T17 construct": "purchased DiscoveRx KINOMEscan (TRKA and CSF1R IC50 enzymes from Invitrogen)", "details": "DRAK1, 100 nM; read-out: Percent Control"}, "[18]": {"target": "T18, BRAF (Homo sapiens, UniProt P15056)", "T18 construct": "purchased DiscoveRx KINOMEscan (TRKA and CSF1R IC50 enzymes from Invitrogen)", "details": "100 nM, read-out: Percent Control"}, "[19]": {"target": "T19, TAK1 (Homo sapiens, UniProt O43318)", "T19 construct": "purchased DiscoveRx KINOMEscan (TRKA and CSF1R IC50 enzymes from Invitrogen)", "details": "TAK1, 100 nM; read-out: Percent Control"}, "[20]": {"target": "T20, DMPK (Homo sapiens, UniProt Q09013)", "T20 construct": "purchased DiscoveRx KINOMEscan (TRKA and CSF1R IC50 enzymes from Invitrogen)", "T20 sequence (Q09013 whole entry)": "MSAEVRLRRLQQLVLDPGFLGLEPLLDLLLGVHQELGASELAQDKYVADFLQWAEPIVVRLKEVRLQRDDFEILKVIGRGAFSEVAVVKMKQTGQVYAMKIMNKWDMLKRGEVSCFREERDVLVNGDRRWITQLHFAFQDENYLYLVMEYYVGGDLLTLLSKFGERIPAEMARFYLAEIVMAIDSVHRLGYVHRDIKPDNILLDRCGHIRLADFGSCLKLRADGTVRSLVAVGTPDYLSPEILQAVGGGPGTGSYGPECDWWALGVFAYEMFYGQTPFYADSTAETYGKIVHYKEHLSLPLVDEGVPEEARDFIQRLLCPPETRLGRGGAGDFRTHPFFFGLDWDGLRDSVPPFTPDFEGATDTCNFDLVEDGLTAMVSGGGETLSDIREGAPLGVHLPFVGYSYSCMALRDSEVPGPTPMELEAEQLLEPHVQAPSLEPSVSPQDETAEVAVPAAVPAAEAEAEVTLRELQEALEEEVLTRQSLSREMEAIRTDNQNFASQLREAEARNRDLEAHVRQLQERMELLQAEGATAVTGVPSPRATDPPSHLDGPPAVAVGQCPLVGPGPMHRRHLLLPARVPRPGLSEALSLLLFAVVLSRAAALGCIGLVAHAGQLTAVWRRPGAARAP", "details": "100 nM, read-out: Percent Control"}, "[21]": {"target": "T21, PLK4 (Homo sapiens, UniProt O00444)", "T21 construct": "purchased DiscoveRx KINOMEscan (TRKA and CSF1R IC50 enzymes from Invitrogen)", "T21 sequence (O00444 whole entry)": "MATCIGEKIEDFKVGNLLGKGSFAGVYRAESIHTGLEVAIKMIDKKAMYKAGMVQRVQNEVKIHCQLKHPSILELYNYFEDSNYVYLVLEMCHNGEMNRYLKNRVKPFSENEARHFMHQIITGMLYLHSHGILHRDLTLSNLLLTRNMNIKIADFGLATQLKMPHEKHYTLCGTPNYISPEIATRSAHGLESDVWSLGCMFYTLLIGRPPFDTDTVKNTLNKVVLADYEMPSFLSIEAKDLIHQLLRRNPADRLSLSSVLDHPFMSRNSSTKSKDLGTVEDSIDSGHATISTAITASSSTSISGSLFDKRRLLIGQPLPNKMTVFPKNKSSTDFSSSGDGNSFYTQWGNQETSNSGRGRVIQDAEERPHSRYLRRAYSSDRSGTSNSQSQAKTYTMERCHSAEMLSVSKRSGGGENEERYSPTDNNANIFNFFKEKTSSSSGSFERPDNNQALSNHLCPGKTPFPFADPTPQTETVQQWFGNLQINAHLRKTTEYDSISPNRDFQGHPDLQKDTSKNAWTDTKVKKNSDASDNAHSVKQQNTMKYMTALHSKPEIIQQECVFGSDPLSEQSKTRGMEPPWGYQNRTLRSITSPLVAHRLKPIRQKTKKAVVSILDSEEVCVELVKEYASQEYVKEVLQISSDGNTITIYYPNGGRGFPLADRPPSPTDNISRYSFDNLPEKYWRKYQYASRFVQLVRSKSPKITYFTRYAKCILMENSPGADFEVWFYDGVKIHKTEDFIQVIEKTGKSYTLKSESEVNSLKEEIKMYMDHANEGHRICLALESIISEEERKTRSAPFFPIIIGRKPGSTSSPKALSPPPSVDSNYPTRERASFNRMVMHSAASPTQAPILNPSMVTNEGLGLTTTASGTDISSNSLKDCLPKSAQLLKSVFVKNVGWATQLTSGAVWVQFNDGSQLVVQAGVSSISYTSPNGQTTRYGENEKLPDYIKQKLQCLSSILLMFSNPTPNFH", "details": "PLK4, 100 nM; read-out: Percent Control"}, "[22]": {"target": "T22, JAK2(JH1domain-catalytic) (Homo sapiens, UniProt O60674)", "T22 construct": "JAK2(JH1domain-catalytic); purchased DiscoveRx KINOMEscan (TRKA and CSF1R IC50 enzymes from Invitrogen)", "details": "100 nM, read-out: Percent Control"}}, "data": [{"molecule": "CC(C)(C)c1cc(NC(=O)Cc2ccc(-n3cnc4cc(-c5ccc(S(C)(=O)=O)cc5)ccc43)cc2)no1", "note": "[NPA101.3]", "values": [{"measurement": "binding (% bound)", "setting": "[1]", "result": "> 90", "unit": "% bound"}, {"measurement": "remaining binding at 0.1 µM", "setting": "[1]; CSF1R, read-out: Percent Control", "result": 0.05, "unit": "%"}, {"measurement": "remaining binding at 0.1 µM", "setting": "[2]", "result": 99, "unit": "%"}, {"measurement": "remaining binding at 0.1 µM", "setting": "[3]", "result": 62, "unit": "%"}, {"measurement": "remaining binding at 0.1 µM", "setting": "[4]", "result": 89, "unit": "%"}, {"measurement": "remaining binding at 0.1 µM", "setting": "[5]", "result": 95, "unit": "%"}, {"measurement": "remaining binding at 0.1 µM", "setting": "[6]", "result": 100, "unit": "%"}, {"measurement": "remaining binding at 0.1 µM", "setting": "[7]", "result": 100, "unit": "%"}, {"measurement": "remaining binding at 0.1 µM", "setting": "[8]", "result": 100, "unit": "%"}, {"measurement": "remaining binding at 0.1 µM", "setting": "[9]", "result": 100, "unit": "%"}, {"measurement": "binding (% bound)", "setting": "[10]; 100 nM", "result": "> 90", "unit": "% bound"}, {"measurement": "remaining binding at 0.1 µM", "setting": "[10]; MKNK2, 100 nM, read-out: Percent Control", "result": 0.15, "unit": "%"}, {"measurement": "remaining binding at 0.1 µM", "setting": "[11]", "result": 82, "unit": "%"}, {"measurement": "remaining binding at 0.1 µM", "setting": "[12]", "result": 98, "unit": "%"}, {"measurement": "remaining binding at 0.1 µM", "setting": "[13]", "result": 69, "unit": "%"}, {"measurement": "binding (% bound)", "setting": "[14]", "result": "> 90", "unit": "% bound"}, {"measurement": "remaining binding at 0.1 µM", "setting": "[14]; LYN, read-out: Percent Control", "result": 2.8, "unit": "%"}, {"measurement": "remaining binding at 0.1 µM", "setting": "[15]", "result": 77, "unit": "%"}, {"measurement": "remaining binding at 0.1 µM", "setting": "[16]", "result": 66, "unit": "%"}, {"measurement": "remaining binding at 0.1 µM", "setting": "[17]", "result": 75, "unit": "%"}, {"measurement": "remaining binding at 0.1 µM", "setting": "[18]", "result": 98, "unit": "%"}, {"measurement": "remaining binding at 0.1 µM", "setting": "[19]", "result": 13, "unit": "%"}, {"measurement": "remaining binding at 0.1 µM", "setting": "[20]", "result": 99, "unit": "%"}, {"measurement": "remaining binding at 0.1 µM", "setting": "[21]", "result": 100, "unit": "%"}, {"measurement": "remaining binding at 0.1 µM", "setting": "[22]", "result": 100, "unit": "%"}]}]}
